Measurements from US11160808B2, “Compounds that enhance Atoh1 expression” (Massachusetts Eye & Ear Infirmary, priority 2008, dated 2021).

Columns and labels:
[1] = LD50 (median lethal dose) determination; assay type: cell-based
Source text: IC50 is a measure of the effectiveness of a compound in inhibiting biological or biochemical function. LD50 is the amount of a compound required to kill half the members of a tested population.

[2] = tested on: Math1 enhancer and minimal promoter Luciferase reporter in HEK cells; assay: Math1 Luciferase reporter assay in HEK cells; assay type: cell-based, human; settings: Homo sapiens, HEK293; for IC50: read-out: IC50; for maximal fold induction: read-out: Maximum (Fold DMSO)
Source text: A human embryonic kidney (HEK) cell line stably expressing a Luciferase gene controlled by an Math1 enhancer and minimal promoter was used in a high-throughput screen (HTS) of 144,000 small molecules to identify compounds that increase Math1 expression (i.e., transcription and/or translation). Such compounds can be used to increase the conversion of stem cells, progenitor cells, and support cells to or towards a hair cell. Screens to identify such compounds are described by Li et al., (U.S. Publication No. 2005/0287127) and Li et al., (U.S. application Ser. No. 11/953,797).
HEK cells stably expressing the Math1 Luciferase reporter were plated onto 384 well plates and cultured overnight in medium containing 10% fetal calf serum (FCS). Activation of the Math1 enhancer was measured by the increase in luminescence on a plate reader following addition of a luciferase detection agent. The assay was optimized for cell number, time of incubation, volume of medium, cell lysis reagent and luciferase reagent. Luminescence levels were compared in cells with the Math1-luciferase construct with and without retinoic acid (1 μM), and/or a luciferase construct with and without the Math1 enhancer and minimal promoter region.
To improve assay sensitivity, and reduce the coefficient of variation (CV), a more sensitive luciferase reagent (BriteLite luciferase reporter assay reagent, Perkin Elmer) was used, and Triton-X-100 was added to the lysis reagent to ensure complete lysis of the cells. Following these changes a CV of 4.2% was recorded. These conditions were used for all high-throughput screens. The luminescence threshold for a compound to be positive was defined as a 2-fold increase above the control (e.g., cells exposed to DMSO).
Cells were seeded on 384 well plates and allowed to attach overnight at 37° C. with 5% CO2 in the absence of growth factors. Math1 activation was measured by the increase in luminescence on a plate reader following addition of a luciferase detection reagent. Luminescence was assessed at 24, 48, and 72 hours. These conditions were used to screen 144,000 compounds contained in the small molecule libraries at Harvard University's Laboratory for Drug Discovery in Neurodegeneration (LDDN).
HTS were performed using HEK-Math1 cells seeded in 384 well plates. One compound was added per well using pin transfer. The final concentration of each compound was […]. Cell were incubated in the presence of a compound for 48 hours at 37° C. with 5% CO2. Cell lysates then were collected and bioluminescence determined. Luminescence values were compared normalized against DMSO.
About 20000 compounds were screened per week in 50 plates of 384 well with the aid of robotic systems (Beckman Biomek FX). Compounds were screened at an average final concentration of 0.7 μM (in 0.04% DMSO) with each plate containing 16 wells of 1 μM retinoic acid, as a positive control, and 16 wells of 0.04% DMSO, as a vehicle control. Percent activation of luminescence in the test compounds was determined for cells treated with the compounds against cells treated with DMSO.
(§1) Ten compounds, randomly selected from the group of 110 compounds identified in Example 2, were further evaluated, as follows. HEK cells were plated on 96 well plates at a density of 100000 cells per well. One day after plating, 0.1, 1, and 5 μM of each positive compound was added per well in a 10% fetal bovine serum (FBS) DMEM solution. Cells were then lysed 48 hours after addition of the compound and Math1 expression was analyzed using a luciferase reporter assay, as described above, and real-time PCR.
The half maximal inhibitory concentration (IC50) and median lethal dose or Lethal Dose, 50% (LD50) were determined for each of the compounds identified in Example 2 using standard laboratory techniques. IC50 is a measure of the effectiveness of a compound in inhibiting biological or biochemical function. LD50 is the amount of a compound required to kill half the members of a tested population.

[3] = tested on: Math1 mRNA; assay: Math1 mRNA expression by RT-PCR in HEK cells; assay type: cell-based, human; settings: among the four randomly selected compounds
Experimental: as §1
RNA was also isolated and Math1 transcripts were amplified using high-throughput RT-PCR.

Row | Structure (SMILES) | LD50 [1] [µM] | IC50 [2] [nM] | increase in Math1 mRNA expression (ranking in words) [3] | maximal fold induction [2]
1 | COc1ccc(-c2nc3ccccc3n2CCc2ccccc2)cc1 [CP-0193184, 2-(4-methoxyphenyl)-1-phenethyl-1H-benzo[d]imidazole] | >30 | > 10000 | highest increase | 
2 | Clc1ccc2oc(-c3ccccc3)nc2c1 [CP-0079983, 5-chloro-2-phenylbenzo[d]oxazole] | >10 | 3000 |  | 1.8
3 | CNc1ccccc1C(=O)NCCc1ccccc1 [CP-0007991, 2-(methylamino)-N-phenethylbenzamide] | >10 | 600 |  | 2
4 | COc1ccc(-c2csc(Nc3ncccc3C)n2)cc1 [CP-0071862, 4-(4-methoxyphenyl)-N-(3-methylpyridin-2-yl)thiazol-2-amine] | >10 | 700 |  | 1.8
5 | CC(=O)c1sc(-c2ccc(C(C)(C)C)cc2)cc1N [CP-0008545, 1-(3-amino-5-(4-tert-butylphenyl)thiophen-2-yl)ethanone] | >10 | 400 |  | 2.5
6 | Oc1ccc(-c2nc3ccccc3[nH]2)cc1 [CP-0047659, 4-(1H-benzo[d]imidazol-2-yl)phenol] | >10 | 1300 |  | 2.3
7 | CCN(CC)C(=O)c1cc2cc3cc(OC)ccc3nc2s1 [CP-0076627, N,N-diethyl-6-methoxythieno [2,3-b]quinoline-2-carboxamide] | >10 | 5000 |  | 2.2
8 | COc1ccc(COn2c(-c3ccc(OC)cc3)nc3ccc(Cl)cc32)cc1 [CP-0000557, 6-chloro-1-(4-methoxybenzyloxy)-2-(4-methoxyphenyl)-1H-benzo[d]imidazole] | 30 | 20 |  | 2.6
9 | COCCNc1ncc(-c2ccc(C)cc2)cn1 [CP-0059547, N-(2-methoxyethyl)-5-p-tolylpyrimidin-2-amine] | >10 | 1000 |  | 2
10 | O=C(NCCOc1ccc(F)cc1)c1cccs1 [CP-0072271, N-(2-(4-fluorophenoxy)ethyl)thio-phene-2-carboxamide] | >10 | 1000 |  | 2.2
11 | O=C(COc1ccccc1)N1CCc2ccccc21 [CP-0110644, 1-(indolin-1-yl)-2-phenoxyethanone] | >10 | 1000 |  | 1.8
12 | O=C(Cn1nnc2ccccc21)NC1Cc2ccccc2C1 [CP-0009883, 2-(1H-benzo[d][1,2,3]triazol-1-yl)-N-(2,3-dihydro-1H-inden-2-yl)acetamide] | >10 | 2500 |  | 2.3
13 | COc1ccc(-c2cc(-c3ccccc3)[nH]n2)c(O)c1 [CP-0064231, 5-methoxy-2-(5-phenyl-1H-pyrazol-3-yl)phenol] | >10 | 1000 |  | 1.5
14 | COc1ccc(C2=NN3C(C2)c2cccc(OC)c2OC32CCCCC2)cc1 (stereo not drawn) [CP-0039073, 7-methoxy-2-(4-methoxyphenyl)-1,10b-dihydrospiro[benzo[e]pyra-zolo[1,5-c][1,3]oxazine-5,1′-cyclohexane]] | >10 | 1500 |  | 2.4
15 | COc1ccc(OCC(=O)Nc2nccs2)cc1 [CP-0063182, 2-(4-methoxyphenoxy)-N-(thiazol-2-yl)acetamide] | >10 | 200 |  | 1.7
16 | COc1ccc(-c2nc3ccc(Cl)cc3n2OCc2ccccc2Cl)cc1 [CP-0000550, 6-chloro-1-(2-chlorobenzyloxy)-2-(4-methoxyphenyl)-1H-benzo[d]imidazole] | >30 | 30 |  | 2
17 | c1ccc(SCc2nc3ccccc3[nH]2)cc1 [CP-0080773, 2-(phenylthiomethyl)-1H-benzo[d]imidazole] | >10 | > 10000 |  | 2.2
18 | O=C(c1cc(-c2ccc(Br)cc2)on1)N1CCOCC1 [CP-0075627, (5-(4-bromophenyl)isoxazol-3-yl)(morpholino)methanone] | >10 | 8000 |  | 2
19 | O=c1ccc2ccc(OCc3ccc(F)cc3)cc2o1 [CP-0063508, 7-(4-fluorobenzyloxy)-2H-chromen-2-one] | >10 | > 10000 |  | 1.7
20 | O=C(NNC(=S)Nc1ccc(F)cc1)c1ccccc1Cl [CP-0005186, 2-(2-chlorobenzoyl)-N-(4-fluorophenyl)hydrazine-carbothioamide] | >10 | 1000 |  | 1.8
21 | COc1cc(C)c2c(=O)cc(-c3ccccc3)oc2c1 [CP-0096433, 7-methoxy-5-methyl-2-phenyl-4H-chromen-4-one] | >10 | 3000 |  | 2
22 | N#Cc1c(NC(=O)c2ccccc2F)sc2c1CCCC2 [CP-0060852, N-(3-cyano-4,5,6,7-tetrahydrobenzo[b]thio-phen-2-yl)-2-fluorobenzamide] | >10 | 2500 |  | 1.8
23 | c1ccc(CCn2nnc3ccccc32)cc1 [CP-0070871, 1-phenethyl-1H-benzo[d][1,2,3]triazole] | >10 | 3000 |  | 2
24 | Cc1cc(Cl)ccc1OCc1nc(-c2ccncc2)no1 [CP-0067108, 5-((4-chloro-2-methylphenoxy)methyl)-3-(pyridin-4-yl)-1,2,4-oxadiazole] | >10 | 3000 |  | 1.8
25 | Cc1ccc(-c2noc(CN3CCCCC3)n2)cc1 [CP-0070164, 5-(piperidin-1-ylmethyl)-3-p-tolyl-1,2,4-oxadiazole] | >10 | 1600 |  | 1.7
26 | Cc1ccc(COn2c(-c3ccccc3)nc3ccc([N+](=O)[O-])cc32)cc1 [CP-0000571, 1-(4-methylbenzyloxy)-6-nitro-2-phenyl-1H-benzo[d]imidazole] | >30 | 300 |  | 2
27 | COc1ccc(Br)c(-c2nc(-c3cccs3)no2)c1 [CP-0104904, 5-(2-bromo-5-methoxyphenyl)-3-(thiophen-2-yl)-1,2,4-oxadiazole] | >10 | > 10000 |  | 2.2
28 | Cc1ccc2nc(-c3cc4ccccc4oc3=N)[nH]c2c1 [CP-0091818, 3-(6-methyl-1H-benzo[d]imidazol-2-yl)-2H-chromen-2-imine] | >10 | 900 |  | 2.1
29 | Cn1cc(Cl)c(C(=O)NCC(=O)c2ccccc2)n1 [CP-0070886, 4-chloro-1-methyl-N-(2-oxo-2-phenylethyl)-1H-pyrazole-3-carboxamide] | >10 | 1000 |  | 2.1
30 | Cc1ccccc1-c1nnc(-c2ccccc2)o1 [CP-0062030, 2-phenyl-5-o-tolyl-1,3,4-oxadiazole] | >10 | 2000 |  | 1.6
